Results from PMC10824102, “Identification of small molecule inhibitors of G3BP-driven stress granule formation” (The Journal of Cell Biology, 2024).

Assays:
[1] = test system: G3BP1 and FUS R495X puncta in U2OS cells with tdTomato-tagged endogenous G3BP1; experiment: Pretreatment before FUS R495X transfection, cytoplasmic puncta area; format: cell-based; conditions: 50 μM, 20 min before FUS R495X transfection, 24 h
Method: U2OS cells with knock-in of G3BP1-tdTomato ([Yang et al., 2020]) were seeded into 96-well plates (3904; Corning). Either GFP-VCP-A232E or GFP-FUS-R495X were transfected into cells using ViaFect transfection reagent (Promega) 24 h prior to the start of the experiment. For samples to be treated with compounds G3Ia or G3Ia′, Hoechst (1:5,000; Biotium) was added and incubated for 30 min prior to the start of the experiment, washed once with PBS, and the media was changed to 100 μl FluoroBrite DMEM media (Gibco) upon starting the experiment. Imaging of plates was performed on a Cytation C10 spinning disk confocal (BioTek) with a Hamamatsu Orca-Flash 4.0 camera using Gen5 software (version 3.11). Imaging was performed through an Olympus Plan Apo 40× 0.6 NA dry objective with an adjustable collar set to 0.5 μm thickness. Laser autofocus prior to imaging the tdTomato channel was utilized for each image. The temperature was maintained at 37°C on the instrument and the cells were supplied with 5% CO2. A 7 × 7 tilescan was taken at the center of each well, capturing the tdTomato and GFP channels (and Hoechst when present). After completing the tilescan, 100 μl FluoroBrite with 100 μM (2×) G3I compound (vortexed for 5 s) was added to each well and incubated for 20 min before starting another round of imaging in the same locations as the first round. Samples treated with G3Ib or G3Ib′ were analyzed manually, scoring each cell with spontaneous granules for the presence or absence of granules following treatment with the compound. For experiments in which G3I compounds were pretreated prior to transfection, 50 μM of indicated compound or vehicle control were added to U2OS cells 20 min prior to the addition of the transfection reagent. After 24 h of transfection, the cells were washed with PBS, fixed in 4% formaldehyde, and incubated with Hoechst (1:5,000; Biotium) in PBS for 30 min prior to the start of the experiment, washed once with PBS, and at room temperature imaging on the Cytation C10 spinning disk confocal was performed as described above.
Samples treated with G3Ia or G3Ia′ were analyzed using an automated pipeline. Segmentation was performed in both ilastik and Cellpose 2.0. Nuclear segmentation using the Hoechst channel and granule segmentation in both GFP and tdTomato channels was performed via pixel classification in ilastik using small cropped portions of the tilescan as the training dataset for each. Individual cell segmentation was performed in Cellpose 2.0 by inputting a merged RGB of the Hoechst and G3BP1-tdTomato channels. The Cellpose output was then eroded by one pixel and set as a binary mask in Fiji. […]

[2] = test system: TDP-43 accumulation in stress granules in U2OS cells; experiment: TDP-43 immunofluorescence after preincubation and arsenite; format: cell-based; conditions: 50 μM pretreatment, 250 μM NaAsO2 for 30 min
Method: U2OS cells or U2OS cells stably expressing G3BP1-GFP were seeded in four-well Lab-Tek II Chambered Coverglass (1055360; Thermo Fisher Scientific). For preincubation experiments, cells were treated with 50 μM G3I compound for 20 min or 24 h, followed by 250 μM NaAsO2 and 50 μM G3I compound for 30 min. For posttreatment, cells were treated with 250 μM NaAsO2 for 30 min, followed by treatment with 250 μM NaAsO2 and 50 μM G3I compound for 5 min. Cells were then washed twice with PBS and fixed with 4% PFA in PBS for 10 min. Cells were then washed three times with PBS (5 min between each wash), permeabilized with 0.5% Triton X-100 in PBS for 10 min, and washed twice with PBS. Next, cells were blocked for 1 h with 3% BSA in PBS at room temperature, followed by incubation with primary antibodies diluted in 3% BSA overnight at 4°C. Cells were then washed three times with PBS (5 min between each wash) and incubated with secondary antibodies and Hoechst diluted in 3% BSA at room temperature for 1 h. Cells were then washed three times with PBS (5 min between each wash) and imaged. […]

Row | Compound | area of G3BP1 found in puncta compared with vehicle-treated cells [1] | formation and incorporation of FUS R495X into cytoplasmic granules [1] | TDP-43 accumulation in stress granules [2]
1 | COCCC(NC(=O)C(C)NC(=O)C(NC(=O)C(NC(=O)C(F)CC(C)(C)C)C(C)(C)O)C(C)c1ccccc1)C(=O)N(C)Cc1ccccc1 (stereo not drawn) [G3Ia] | reduced the area of G3BP1 found in puncta | failed to block the formation and incorporation of FUS R495X into cytoplasmic granules | not
2 | CC(NC(=O)C(NC(=O)C(NC(=O)CCC(C)(C)C)C(C)(C)O)C(C)c1ccccc1)C(=O)N1CCCC1c1ccccc1 (stereo not drawn) [G3Ib] | reduced the area of G3BP1 found in puncta | failed to block the formation and incorporation of FUS R495X into cytoplasmic granules | not
